# Laboratory results reported in publication PMC2725396 (Clinical cancer research : an official journal of the …, 2008).
# “And” between values parts separate entries of the source, which are not always exact repeats. Equal entries are not always repeated. Where two headings read alike, the source gives them in different places.
# Legend:
# [1] = target: T1, BCRP (Homo sapiens, UniProt Q9UNQ0); test: Topotecan accumulation by flow microfluorimetry in MDA-MB-231/BCRP cells; type: cell-based
# T1 sequence (Q9UNQ0 1-655): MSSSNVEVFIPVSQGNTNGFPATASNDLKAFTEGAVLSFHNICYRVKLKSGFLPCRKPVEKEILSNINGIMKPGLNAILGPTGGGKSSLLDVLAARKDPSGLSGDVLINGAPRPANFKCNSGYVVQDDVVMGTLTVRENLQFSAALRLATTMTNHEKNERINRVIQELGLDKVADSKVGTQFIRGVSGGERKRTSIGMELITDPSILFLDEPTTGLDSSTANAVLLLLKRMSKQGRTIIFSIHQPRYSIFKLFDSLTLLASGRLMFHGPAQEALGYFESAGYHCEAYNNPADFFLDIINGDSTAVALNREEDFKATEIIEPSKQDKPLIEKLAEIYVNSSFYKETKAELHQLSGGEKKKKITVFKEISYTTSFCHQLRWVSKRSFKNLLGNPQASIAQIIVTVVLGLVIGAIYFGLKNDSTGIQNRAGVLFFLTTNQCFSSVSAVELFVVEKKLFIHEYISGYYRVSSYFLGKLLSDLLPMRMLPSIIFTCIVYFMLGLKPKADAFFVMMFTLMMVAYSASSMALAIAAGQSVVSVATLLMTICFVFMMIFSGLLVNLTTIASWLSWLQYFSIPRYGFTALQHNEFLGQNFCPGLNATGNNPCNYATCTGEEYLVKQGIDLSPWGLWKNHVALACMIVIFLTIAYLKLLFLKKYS
# [2] = test system: MDA-MB-231/empty vector cells; test: Topotecan accumulation by flow microfluorimetry in MDA-MB-231/empty vector cells; type: cell-based; conditions: MDA-MB-231 cells transfected with empty vector
# [3] = test system: MDA-MB-231/empty vector cells; test: Clonogenic assay with topotecan plus lapatinib in MDA-MB-231/empty vector cells; type: cell-based; conditions: MDA-MB-231 cells transfected with empty vector, 1 µmol/L lapatinib, 24 h
# [4] = target: Pgp (Cricetulus griseus, UniProt P21448); test: Topotecan accumulation by flow microfluorimetry in CH^RC5 cells; type: cell-based, Chinese hamster; conditions: 1,000 nmol/L lapatinib, n = 3
# Pgp (Cricetulus griseus, UniProt P21448), sequence (P21448 whole entry): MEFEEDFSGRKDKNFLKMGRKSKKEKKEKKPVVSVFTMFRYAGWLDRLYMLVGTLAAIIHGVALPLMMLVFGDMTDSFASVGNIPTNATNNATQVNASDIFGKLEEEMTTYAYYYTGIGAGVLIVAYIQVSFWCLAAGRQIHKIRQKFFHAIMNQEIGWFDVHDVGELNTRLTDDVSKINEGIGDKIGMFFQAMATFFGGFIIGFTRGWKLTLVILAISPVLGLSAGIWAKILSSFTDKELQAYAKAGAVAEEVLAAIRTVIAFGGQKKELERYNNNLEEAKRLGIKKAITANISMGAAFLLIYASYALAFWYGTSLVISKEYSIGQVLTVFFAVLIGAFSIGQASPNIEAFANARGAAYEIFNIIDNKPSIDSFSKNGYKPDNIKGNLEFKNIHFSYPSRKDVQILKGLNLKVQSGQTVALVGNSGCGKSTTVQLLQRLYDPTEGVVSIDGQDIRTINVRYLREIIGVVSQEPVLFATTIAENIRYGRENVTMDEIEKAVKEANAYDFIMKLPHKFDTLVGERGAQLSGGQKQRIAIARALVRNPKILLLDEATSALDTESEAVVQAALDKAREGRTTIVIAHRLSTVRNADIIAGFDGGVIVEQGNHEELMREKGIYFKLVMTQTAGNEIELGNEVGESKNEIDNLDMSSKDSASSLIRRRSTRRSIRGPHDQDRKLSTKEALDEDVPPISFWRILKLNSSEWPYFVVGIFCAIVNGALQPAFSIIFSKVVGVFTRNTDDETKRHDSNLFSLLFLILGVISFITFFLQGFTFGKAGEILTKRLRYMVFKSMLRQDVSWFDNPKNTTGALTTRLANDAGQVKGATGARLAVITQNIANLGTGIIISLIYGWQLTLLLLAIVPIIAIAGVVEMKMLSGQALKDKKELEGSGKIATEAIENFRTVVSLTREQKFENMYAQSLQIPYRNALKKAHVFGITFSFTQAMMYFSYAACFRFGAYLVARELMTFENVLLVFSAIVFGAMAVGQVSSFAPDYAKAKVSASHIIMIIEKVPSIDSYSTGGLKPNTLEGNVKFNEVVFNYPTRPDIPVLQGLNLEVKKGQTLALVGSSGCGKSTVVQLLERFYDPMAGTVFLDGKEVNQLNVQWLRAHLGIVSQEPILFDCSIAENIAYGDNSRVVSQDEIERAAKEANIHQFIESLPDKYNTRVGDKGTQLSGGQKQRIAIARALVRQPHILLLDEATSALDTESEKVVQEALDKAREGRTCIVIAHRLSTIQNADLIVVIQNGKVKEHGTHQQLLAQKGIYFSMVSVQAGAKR
# [5] = test system: AuxB1 cells; test: Topotecan accumulation by flow microfluorimetry in AuxB1 cells; type: cell-based, Chinese hamster; conditions: AuxB1 cells (lower Pgp), compared with CH^RC5
# [6] = test system: BT474 human breast carcinoma xenografts; test: BT474 xenograft tumor growth inhibition; type: in vivo, CB-17 SCID mice
# [7] = test system: patients with advanced solid tumors; test: Phase I trial: MTD, DLTs and adverse events; type: in vivo, human
# [8] = type: in vivo, human; conditions: fit of CLNRF ratio versus lapatinib steady-state Cmin, ±35%
# [9] = test system: Pgp; conditions: cited from earlier work
# [10] = target: T1, BCRP; conditions: read-out: in vitro Ki for inhibition of BCRP; cited from earlier work
# [11] = cited from earlier work
# [12] = single agent, cited from earlier work
# [13] = Phase I trial: plasma pharmacokinetics of topotecan and lapatinib; conditions: for AUC(0-t) / Cmax / Topotecan CLp: n = 9, geometric mean and 95% CI; for Cmax: Topotecan Cmax; for half-life / Topotecan CLNRF / Topotecan Vss: geometric mean and 95% CI; for Topotecan CLNRF: CLp minus CLCR
# [14] = geometric least squares mean ratio and 90% CI
smiles,measurement,setting,value
CS(=O)(=O)CCNCc1ccc(-c2ccc3ncnc(Nc4ccc(OCc5cccc(F)c5)c(Cl)c4)c3c2)o1 [lapatinib],EC50,[1],250 nM
same,effect on intracellular topotecan,[2],little effect
same,effect on topotecan-induced inhibition of colony formation,[3],little effect
same,"intracellular topotecan, % of steady-state accumulation in the absence of lapatinib",[4],220 ± 20%
same,effect on intracellular topotecan,[5],more modest
same,inhibition of BT474 tumor growth,"[6]; lapatinib 30 mg/kg oral twice daily 21 d, study 2, day 70",26%
same,inhibition of BT474 tumor growth,"[6]; lapatinib 60 mg/kg oral twice daily 21 d, study 1, day 56",79%
same,inhibition of BT474 tumor growth,"[6]; lapatinib 100 mg/kg oral twice daily 21 d, study 1, day 56",77%
same,inhibition of BT474 tumor growth,"[6]; lapatinib 100 mg/kg oral twice daily 21 d, study 2, day 70",82%
same,MTD and recommended phase II dose of lapatinib in the combination,[7]; for 28 days of a 28-day cycle,"1,250 mg/d"
same,Ki (lapatinib concentration producing 50% inhibition of topotecan CLNRF),[8],"2,349 ng/mL"
same,in vitro Ki for inhibition of Pgp,[9],"2,300 ng/mL"
same,Ki,[9]; read-out: in vitro Ki for inhibition of Pgp,3900 nM
same,Ki,[10],24.1 nM and 25 nM
same,Lapatinib AUC in mice,[11]; 30 mg/kg orally twice daily,5000 ng·h/mL
same,Lapatinib Cmax in mice,[11]; 30 mg/kg orally twice daily,1000 ng/mL
same,Lapatinib AUC in mice,[11]; 60 mg/kg orally twice daily,29000 ng·h/mL
same,Lapatinib Cmax in mice,[11]; 60 mg/kg orally twice daily,4000 ng/mL
same,Lapatinib AUC in mice,[11]; 100 mg/kg orally twice daily,94000 ng·h/mL
same,Lapatinib Cmax in mice,[11]; 100 mg/kg orally twice daily,9000 ng/mL
same,dose up to which lapatinib was well tolerated in phase I trials,[12]; diarrhea and rash dose limiting,"up to 1,800 mg/d"
same,AUC(0-t),"[13]; human, plasma, oral, Lapatinib AUC0–24 h, lapatinib + topotecan (day 8)",31700 ng·h/mL
same,AUC(0-t),"[13]; human, plasma, oral, Lapatinib AUC0–24 h, lapatinib alone (day 7)",23300 ng·h/mL
same,Tmax,"[13]; human, plasma, oral, Lapatinib Tmax, lapatinib alone (day 7), median and range",3 h
CC[C@@]1(O)C(=O)OCc2c1cc1n(c2=O)Cc2cc3c(CN(C)C)c(O)ccc3nc2-1 [topotecan],inhibition of BT474 tumor growth,"[6]; topotecan alone 6 mg/kg i.p. every 4 d × 3, study 2",53%
same,inhibition of BT474 tumor growth,"[6]; topotecan alone 10 mg/kg i.p. every 4 d × 3, study 1",66%
same,inhibition of BT474 tumor growth,"[6]; topotecan alone 10 mg/kg i.p. every 4 d × 3, study 2",65%
same,MTD and recommended phase II dose of topotecan in the combination,"[7]; i.v. on days 1, 8, 15 of a 28-day cycle",3.2 mg/m^2
same,MTD for topotecan alone,[12]; × 3,4 mg/m^2/wk
same,topotecan doses at which neutropenia is the principal toxicity,[12],above 4 mg/m^2/wk
same,increase of topotecan AUC0–24 h in the presence of lapatinib,[13]; (7–29%),18%
same,decrease of topotecan CLNRF when administered with lapatinib,[13]; (12–32%),22%
same,decrease in topotecan CLp when administered with lapatinib,[13]; day 8 versus day 1,16%
same,"Topotecan AUC0–24 h, day 8:day 1 ratio",[13]; [14],1.18 (1.07–1.29)
same,"Topotecan CLNRF, day 8:day 1 ratio",[13]; [14],0.78 (0.68–0.88)
same,"Topotecan CLp, day 8:day 1 ratio",[13]; [14],0.84 (0.76–0.92)
same,"Topotecan Cmax, day 8:day 1 ratio",[13]; [14],0.79 (0.66–0.92)
same,"Topotecan Vss, day 8:day 1 ratio",[13]; [14],0.99 (0.90–1.08)
same,"Topotecan t1/2, day 8:day 1 ratio",[13]; [14],1.01 (0.96–1.06)
same,AUC(0-t),"[13]; human, plasma, intravenous, Topotecan AUC0–24 h, lapatinib + topotecan (day 8)",510 ng·h/mL
same,AUC(0-t),"[13]; human, plasma, intravenous, Topotecan AUC0–24 h, topotecan alone (day 1)",432 ng·h/mL
same,Cmax,"[13]; human, plasma, intravenous, lapatinib + topotecan (day 8)",128 ng/mL
same,Cmax,"[13]; human, plasma, intravenous, topotecan alone (day 1)",162 ng/mL
same,half-life,"[13]; human, plasma, intravenous, Topotecan t1/2, lapatinib + topotecan (day 8)",4.35 h
same,half-life,"[13]; human, plasma, intravenous, Topotecan t1/2, topotecan alone (day 1)",4.3 h
same,Topotecan CLNRF,[13]; lapatinib + topotecan (day 8),4.11 (2.72–5.50) L/h/m^2
same,Topotecan Vss,[13]; lapatinib + topotecan (day 8),30.1(23.9–36.3) L/m^2
same,Topotecan CLp,[13]; lapatinib + topotecan (day 8),6.14 L/h/m^2
same,Topotecan CLp,"[13]; lapatinib + topotecan (day 8), listed as Topotecan",6.14 (4.27–8.01) L/h/m^2
same,topotecan CLNRF as % of CLp,[13]; topotecan administered alone,72%
same,Topotecan CLNRF,[13]; topotecan alone (day 1),5.25 (3.99–6.51) L/h/m^2
same,Topotecan Vss,[13]; topotecan alone (day 1),30.5 (26.5–34.5) L/m^2
same,Topotecan CLp,[13]; topotecan alone (day 1),7.28 L/h/m^2
same,Topotecan CLp,"[13]; topotecan alone (day 1), listed as Topotecan",7.28 (5.35–8.91) L/h/m^2
same,topotecan CLNRF as % of CLp,[13]; topotecan and lapatinib administered together,66%
